Data: patent US5403824A, “Methods for the treatment of osteoporosis” (The Procter & Gamble Company, priority 1993, dated 1995)

Test system: Rat osteoblast-like cells (ROS 17/2.8)
Assay: [3H]-thymidine incorporation, proliferation of osteoblast-like cells
Format: cell-based
Settings: ROS 17/2.8, 18 hrs incubation, 2 hrs pulse
Source text: Stimulation of osteoblast-like cell proliferation can be measured according to several art-recognized in vitro models. One such model is described in European Patent Publication No. 384,731, by Rodan et al, published Aug. 29, 1990, which is incorporated herein by reference. (Applicants have modified this method by reducing regent volumes to one-quarter those described and by utilizing Dulbecco's Modified eagle's Medium (DMEM).) In this model, proliferation (division) of, for example, rat osteoblast-like cells (rat osteosarcoma (ROS) cells, rat calvaria cells, etc.) is observed by measuring the amount of radiolabeled thymidine ([^3 H]thymidine) incorporated by these cells. ([^3 H]thymidine is "incorporated" by cellular DNA being synthesized as a result of cell proliferation.) The greater the level of [^3 H]thymidine measured, the greater the amount of proliferation of the osteoblast cells.
More specifically, a test sample (comprised of a test compound and osteoblast-like cells) and a control sample (comprised of only osteoblast-like cells) are pulsed with [^3 H]thymidine. The amount of [^3 H]thymidine incorporated by the cells is measured using a direct beta counter.
Rat osteoblast-like cells (ROS 17/2.8) are plated at 4×10^3 cells/well in a 96-well plate in Dulbecco's Modified eagle's Medium supplemented with 2% (v/v) Fetal Bovine Serum, and incubated for 6 hrs. Control (serum-free) medium and test medium (test sample and serum-free medium) are then added to the cells and this combination is incubated for 18 hrs. The cells are then pulsed with [^3 H]-thymidine (1 μCi/well) for 2 hrs. The medium is then removed, the cells are harvested onto glass fibre filters and the amount of [^3 H]-thymidine (counts per minute per well) incorporated into DNA is then determined using a direct beta counter. Values for control groups are then compared to values for treated groups.
(§1) The compound H-Tyr-D-Ala-Gly-Phe-D-Leu-OH ("DADLE") is screened to determine whether it stimulates proliferation of osteoblast-like cells. […] The medium is then removed, the cells are harvested onto glass fibre filters, and the amount of ^3 H-thymidine (counts per minute per well) incorporated into DNA is determined using a direct beta counter. […]
as §1, with “Tyr-D-Cys(S-t-butylthioether)-Gly-Phe-Leu-Thr(O-t-butylether) ("BUBUC")” for “H-Tyr-D-Ala-Gly-Phe-D-Leu-OH ("DADLE")”

With `O=C(O)CNC(=O)C(CS)Cc1ccccc1` (racemic) [DL-3-mercapto-2-benzyl-propanoylglycine] the “[3H]-thymidine incorporation (proliferation) vs control” value was “significantly stimulated proliferation of the osteoblast-like cells”.
